From the supplement of paper PMC10331698
± gives the standard deviation of the averaged measurements.

Legend:
Assay in all cases: level (log10 ratio to DMSO vehicle control); higher = higher biomarker level / cell amount than vehicle control
[1] = compound: O=C(Cl)C(F)(F)C(F)(F)C(F)(F)C(=O)Cl [Hexafluoroglutaryl chloride]; conditions: in DMSO
Description: (§1)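 BioMAP Diversity Plus panel of 12 human primary cell co-culture systems (3C, 4H, LPS, SAg, BT, BF4T, BE3C, CASM3C, HDF3CGF, KF3CT, MyoF, Mphg). Compounds were added 1 h before stimulation and left for 24 h (MyoF 48 h; BT 72 h for soluble read-outs or 6 d for IgG). Biomarkers were read by ELISA, cytotoxicity by SRB, PBMC viability and proliferation by Alamar Blue. Each well value was divided by the mean of 8 DMSO control wells on the same plate and log10 transformed; duplicate blinded samples were tested at 4 concentrations.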

[2] = compound: FC(F)(I)C(F)(F)C(F)(F)C(F)(F)C(F)(F)C(F)(F)I [1,6-Diiodoperfluorohexane]; conditions: 6700 nM; in DMSO
Description: as §1

[3] = compound: Cc1ccc(S(=O)(=O)OCC(F)(F)C(F)(F)C(F)(F)C(F)(F)C(F)(F)C(F)F)cc1 [1H,1H,7H-Perfluoroheptyl 4-methylbenzenesulfonate]; conditions: in DMSO
Description: as §1

Methotrexate = compound: CN(Cc1cnc2nc(N)nc(N)c2n1)c1ccc(C(=O)N[C@@H](CCC(=O)O)C(=O)O)cc1 [Methotrexate]; conditions: in DMSO
Description: as §1

Perfluorooctanoic acid = compound: O=C(O)C(F)(F)C(F)(F)C(F)(F)C(F)(F)C(F)(F)C(F)(F)C(F)(F)F [Perfluorooctanoic acid]; conditions: in DMSO
Description: as §1

[4] = compound: OCCCC(F)(F)C(F)(F)C(F)(F)C(F)(F)C(F)(F)C(F)(F)C(F)(F)C(F)(F)F [3-(Perfluorooctyl)propanol]; conditions: 6700 nM; in DMSO
Description: as §1

Perfluoropinacol = compound: OC(C(F)(F)F)(C(F)(F)F)C(O)(C(F)(F)F)C(F)(F)F [Perfluoropinacol]; conditions: in DMSO
Description: as §1

[5] = compound: C=CC(=O)OCCC(F)(F)C(F)(F)C(F)(F)C(F)(F)C(F)(F)C(F)(F)C(F)(F)C(F)(F)F [8:2 Fluorotelomer acrylate]; conditions: in DMSO
Description: as §1

Row | Test System | level (log10) ([1]; 6700 nM) | level (log10) ([1]; 20000 nM) | level (log10) ([1]; 60000 nM) | level (log10) [2] | level (log10) ([3]; 6700 nM) | level (log10) ([3]; 20000 nM) | level (log10) ([3]; 60000 nM) | level (log10) (Methotrexate; 1500 nM) | level (log10) (Methotrexate; 4400 nM) | level (log10) (Methotrexate; 13000 nM) | level (log10) (Methotrexate; 40000 nM) | level (log10) (Perfluorooctanoic acid; 6700 nM) | level (log10) (Perfluorooctanoic acid; 20000 nM) | level (log10) (Perfluorooctanoic acid; 60000 nM) | level (log10) [4] | level (log10) (Perfluoropinacol; 6700 nM) | level (log10) (Perfluoropinacol; 20000 nM) | level (log10) ([5]; 6700 nM) | level (log10) ([5]; 20000 nM) | level (log10) ([5]; 60000 nM)
1 | lMphg:M-CSF | 0.011 | -0.021 ± 0.031 | 0.018 ± 0.011 | -0.023 | -0.0295 ± 0.005 | -0.0305 ± 0.0035 | -0.016 | -0.03 ± 0.034 | -0.013 ± 0.025 | -0.0295 ± 0.026 | -0.013 ± 0.085 | -0.007 ± 0.0042 | 0.0105 ± 0.019 | 0.0185 ± 0.029 | -0.0255 ± 0.00071 | -0.0155 ± 0.04 | -0.0825 ± 0.013 | -0.0195 ± 0.042 | -0.013 ± 0.014 | -0.003 ± 0.016
2 | BE3C:MMP-1 | -0.001 ± 0.014 | -0.008 ± 0.014 | 0.0065 ± 0.016 | 0.014 | 0.044 ± 0.0099 | 0.051 ± 0.038 | 0.094 ± 0.061 | -0.028 ± 0.024 | -0.011 ± 0.044 | 0.034 ± 0.016 | 0.031 ± 0.014 | -0.0085 ± 0.012 | 0.044 | 0.226 ± 0.035 | 0.064 ± 0.0042 | 0.0275 ± 0.0021 | -0.003 ± 0.0057 | -0.015 ± 0.0085 | -0.013 ± 0.023 | 0.0365 ± 0.08
3 | CASM3C:PAI-I | -0.0135 ± 0.021 | 0.0025 ± 0.0078 | 0.0065 ± 0.0021 | 0.011 | -0.004 ± 0.0028 | -0.007 ± 0.0085 | -0.008 ± 0.016 | 0.004 ± 0.013 | 0.0035 ± 0.0064 | 0.0125 ± 0.0035 | 0.0105 ± 0.0021 | 0.003 ± 0.0085 | -0.0005 ± 0.012 | 0.01 ± 0.018 | -0.0165 ± 0.0092 | -0.006 ± 0.0071 | -0.0075 ± 0.0064 | -0.0045 ± 0.0021 | -0.008 ± 0.0099 | 0.005 ± 0.017
4 | lMphg:SRB | 0.008 ± 0.0057 | 0.012 | 0.0075 ± 0.0092 | -0.028 | 0.004 ± 0.013 | -0.002 ± 0.0042 | -0.0055 ± 0.00071 | 0.0015 ± 0.0064 | -0.0005 ± 0.00071 | -0.002 ± 0.0085 | 0.0055 ± 0.00071 | -0.008 ± 0.0071 | -0.0005 ± 0.005 | 0.011 ± 0.017 | 0.0045 ± 0.0078 | -0.0315 ± 0.0035 | -0.144 ± 0.0064 | -0.003 ± 0.0085 | -0.0105 ± 0.016 | -0.004 ± 0.034
5 | CASM3C:CD106/VCAM-1 | -0.017 ± 0.03 | -0.013 ± 0.024 | 0.0025 ± 0.047 | -0.041 | 0.001 ± 0.0028 | -0.011 ± 0.0014 | 0.0135 ± 0.005 | -0.022 ± 0.05 | 0.016 ± 0.0014 | 0.009 ± 0.0028 | -0.002 ± 0.027 | -0.033 ± 0.011 | -0.0165 ± 0.00071 | 0.019 ± 0.017 | -0.0895 ± 0.019 | -0.028 ± 0.0042 | -0.0385 ± 0.015 | -0.033 ± 0.0042 | -0.039 ± 0.037 | 0.004 ± 0.025
6 | MyoF:Decorin | -0.014 ± 0.016 | -0.0095 ± 0.026 | -0.006 ± 0.0099 | 0.021 | 0.0065 ± 0.033 | 0.0045 ± 0.025 | 0.073 ± 0.05 | 0.0355 ± 0.037 | 0.0025 ± 0.026 | 0.0105 ± 0.016 | 0.0275 ± 0.0078 | 0.007 ± 0.018 | 0.02 ± 0.025 | 0.033 ± 0.055 | 0.0395 ± 0.033 | -0.041 ± 0.024 | -0.034 ± 0.025 | -0.0175 ± 0.0078 | -0.0185 ± 0.0078 | -0.016 ± 0.017
7 | 3C:CD54/ICAM-1 | 0.002 ± 0.0014 | -0.006 ± 0.013 | 0.0025 ± 0.035 | 0.03 | 0.0085 ± 0.0021 | -0.005 ± 0.0085 | -0.01 ± 0.02 | 0.0065 ± 0.0064 | -0.0085 ± 0.005 | 0.0045 ± 0.013 | -0.002 ± 0.0085 | -0.0145 ± 0.0035 | -0.007 ± 0.0042 | 0.0185 ± 0.0078 | 0.0095 ± 0.0064 | 0.0055 ± 0.0021 | -0.0005 ± 0.021 | -0.009 ± 0.02 | -0.0205 ± 0.018 | 0.002 ± 0.0085
8 | KF3CT:CXCL9/MIG | 0.0025 ± 0.011 | 0.0085 ± 0.011 | 0.008 ± 0.0085 | -0.088 | -0.005 ± 0.014 | -0.0025 ± 0.012 | -0.008 ± 0.0057 | 0.001 ± 0.0028 | 0.002 ± 0.016 | -0.0005 ± 0.0021 | 0.001 ± 0.0014 | 0.006 ± 0.016 | 0.006 ± 0.016 | 0.01 ± 0.016 | -0.018 ± 0.0057 | 0.002 ± 0.0028 | -0.004 ± 0.0071 | -0.0065 ± 0.0092 | 0.0005 ± 0.0035 | 0.011 ± 0.0085
9 | lMphg:CD40 | 0.036 ± 0.037 | 0.0115 ± 0.022 | -0.002 ± 0.011 | -0.029 | -0.009 ± 0.016 | -0.0175 ± 0.0092 | -0.0135 ± 0.005 | 0.0125 ± 0.005 | 0.0005 ± 0.013 | -0.0155 ± 0.023 | 0.0045 ± 0.0021 | -0.0035 ± 0.021 | -0.021 ± 0.0057 | -0.018 ± 0.014 | -0.037 ± 0.018 | -0.0265 ± 0.019 | -0.202 ± 0.03 | -0.014 ± 0.025 | -0.0065 ± 0.0078 | -0.0225 ± 0.021
10 | lMphg:sIL-10 | -0.049 ± 0.045 | -0.102 ± 0.0035 | 0.0335 ± 0.076 | -0.219 | -0.194 ± 0.063 | -0.0825 ± 0.14 | -0.0155 ± 0.091 | 0.076 ± 0.03 | 0.05 ± 0.011 | 0.0485 ± 0.023 | 0.014 ± 0.028 | -0.0525 ± 0.032 | -0.0035 ± 0.11 | -0.219 ± 0.051 | -0.027 ± 0.013 | 0.031 ± 0.017 | -0.498 ± 0.24 | -0.058 ± 0.016 | -0.014 ± 0.062 | -0.0465 ± 0.012
11 | BE3C:uPA | -0.0015 ± 0.0064 | -0.004 ± 0.0028 | -0.0035 ± 0.0064 | -0.002 | 0.01 ± 0.018 | -0.0155 ± 0.019 | -0.001 ± 0.0057 | -0.013 ± 0.0028 | -0.0315 ± 0.033 | -0.0205 ± 0.052 | -0.0015 ± 0.036 | -0.014 ± 0.013 | -0.0065 ± 0.0021 | 0.0185 ± 0.015 | -0.005 ± 0.0085 | -0.0055 ± 0.005 | -0.042 ± 0.011 | -0.0175 ± 0.005 | -0.008 ± 0.0028 | -0.001 ± 0.017
12 | lMphg:IL-1alpha | -0.0255 ± 0.052 | -0.041 ± 0.086 | -0.03 ± 0.082 | 0.024 | -0.034 ± 0.017 | -0.036 ± 0.042 | 0.033 ± 0.099 | -0.0335 ± 0.097 | -0.0545 ± 0.083 | -0.041 ± 0.057 | -0.028 ± 0.047 | -0.0105 ± 0.0021 | -0.0085 ± 0.026 | 0.0545 ± 0.026 | -0.0015 ± 0.03 | 0.103 ± 0.021 | 0.149 ± 0.067 | -0.012 | -0.007 ± 0.021 | 0.035 ± 0.059
13 | MyoF:Collagen IV | -0.021 ± 0.099 | -0.0295 ± 0.11 | -0.0075 ± 0.069 | 0.063 | 0.0145 ± 0.022 | 0.0265 ± 0.046 | 0.0665 ± 0.077 | -0.0195 ± 0.025 | 0.004 ± 0.033 | 0.007 ± 0.061 | -0.014 ± 0.016 | 0.011 ± 0.014 | 0.051 ± 0.033 | 0.214 ± 0.03 | -0.0385 ± 0.029 | 0.0385 ± 0.005 | 0.165 ± 0.0028 | -0.022 ± 0.0042 | -0.002 ± 0.0057 | -0.0135 ± 0.036
14 | lMphg:CXCL8/IL-8 | 0.023 ± 0.011 | 0.027 ± 0.018 | 0.0625 ± 0.05 | 0.018 | 0.022 ± 0.0057 | 0 | 0.022 ± 0.057 | 0.0075 ± 0.046 | -0.017 | 0.003 ± 0.023 | 0.044 ± 0.0057 | 0.009 ± 0.021 | 0.073 ± 0.048 | 0.175 ± 0.054 | 0.0655 ± 0.015 | 0.0875 ± 0.061 | 0.161 ± 0.066 | -0.009 ± 0.052 | 0.019 ± 0.035 | 0.0665 ± 0.029
